Like-named read-outs stand apart in the source and are kept apart here.
What was measured:
Mth IMPDH ΔCBS [1] = biological target: T1, Mth IMPDH ΔCBS (Mycolicibacterium thermoresistibile, UniProt G7CNL4, R236G); assay: Inhibition constants (Ki) and mode of inhibition against Mth IMPDH ΔCBS with respect to IMP and NAD+; type: biochemical, Mycobacterium thermoresistible; parameters: key to Pattern of inhibition with respect to IMP / Pattern of inhibition with respect to NAD: UC: Uncompetitive inhibition; conditions: for Pattern of inhibition with respect to IMP / Pattern of inhibition with respect to NAD: UC = uncompetitive; for Pattern of inhibition with respect to IMP / IMP αKi: with respect to IMP; for IMP αKi: fixed saturating NAD+ ([…]); for Pattern of inhibition with respect to NAD / NAD αKi: with respect to NAD+; for NAD αKi: constant saturating IMP (1 mM)
Protocol: The inhibition constant [Ki] with respect to both substrates IMP and NAD^+ was determined by assaying various concentrations of each inhibitor with five different concentrations of substrate and a fixed saturating concentration of the cosubstrate.
(§1) The initial velocities at various inhibitor concentrations were determined based on the slope in the linear part of each reaction containing the inhibitor and the uninhibited reaction. To determine the inhibition constant (Ki values), the initial rate data versus substrate concentration at different inhibitor concentrations were fit using Prism software (GraphPad) to equations for uncompetitive or mixed inhibition. For each inhibitor concentration, the reciprocal of enzyme reaction velocity versus the reciprocal of the substrate concentration was plotted in a Lineweaver–Burk plot to determine the pattern of inhibition.

Mth IMPDH ΔCBS [2] = biological target: T1, Mth IMPDH ΔCBS; type: biochemical, Mycobacterium thermoresistible; conditions: SAR statement in text
full-length Mtb IMPDH = full-length Mtb IMPDH (Mycobacterium tuberculosis, UniProt P9WKI7); assay: Inhibition constants toward full-length Mtb IMPDH; type: biochemical
Protocol: as §1

[3] = IMP as the substrate, read-out: Ki with IMP as the substrate
[4] = NAD as the substrate, read-out: Ki with NAD as the substrate

Structure (SMILES) | Pattern of inhibition with respect to IMP (Mth IMPDH ΔCBS [1]) | IMP αKi (Mth IMPDH ΔCBS [1]) [µM] | Pattern of inhibition with respect to NAD (Mth IMPDH ΔCBS [1]) | NAD αKi (Mth IMPDH ΔCBS [1]) [µM] | Mth IMPDH ΔCBS inhibitory activity (in words) (Mth IMPDH ΔCBS [2]) | Ki (full-length Mtb IMPDH; [3]) [µM] | Ki (full-length Mtb IMPDH; [4]) [µM]
CC1(C)Cc2cccc(CO)c2O1 [Compound 19] | Mixed | 126 ± 34 | UC | 355 ± 47 |  |  | 
CC(Oc1ccc(-c2cn(C)cn2)cc1)C(=O)Nc1ccccc1 (centres unmarked) [Compound 34, 2-(4-(1-Methyl-1H-imidazol-4-yl)phenoxy)-N-phenylpropanamide] |  |  |  |  | complete loss of activity |  | 
COc1ccc(OC(C)C(=O)Nc2ccc(I)cc2)cc1 (centres unmarked) [Compound 1, reference compound] | uncompetitive and UC |  | uncompetitive and UC | 0.55 ± 0.02 |  |  | 
Oc1ccc2ccc(O)cc2c1 [Compound 11] | uncompetitive and UC | 361 ± 53 | UC | 310 ± 30 |  |  | 
O=C(O)CSc1nc(-c2ccc(Br)cc2)c[nH]1 [Compound 27, 2-((4-(4-Bromophenyl)-1H-imidazol-2-yl)thio)acetic Acid] |  |  |  |  | complete loss in activity |  | 
Brc1ccc(-c2c[nH]cn2)cc1 [Compound 2] | uncompetitive and UC | 609 ± 3 | uncompetitive and UC | 512 ± 23 |  | 572 ± 14 | 534 ± 18
O=C(O)CSc1nc(-c2ccccc2)c[nH]1 [Compound 28, 2-((4-Phenyl-1H-imidazol-2-yl)thio)acetic Acid] |  |  |  |  | complete loss in activity |  | 
O=C(O)c1cc2sccc2s1 [Compound 14] | Mixed | 238 ± 6 | UC | 262 ± 39 |  |  | 
CC(Oc1ccc(-c2cn(C)cn2)cc1)C(=O)Nc1nc(-c2ccc(Br)cc2)c[nH]1 (centres unmarked) [Compound 31, N-(4-(4-Bromophenyl)-1H-imidazol-2-yl)-2-(4-(1-methyl-1H-imidazol-4-yl)phenoxy)propanamide] | uncompetitive | 0.30 ± 0.02 | uncompetitive | 0.20 ± 0.01 |  | 0.61 ± 0.05 | 0.39 ± 0.02
Cc1ccc(-c2nc(C(=O)O)cs2)cc1 [Compound 16] | Mixed |  | UC | 525 ± 64 |  |  | 
CC(=O)Nc1cc(C)ccc1O [Compound 18] | uncompetitive and UC | 554 ± 70 | UC | 452 ± 26 |  |  | 
CC(C)NC(=O)CSc1nc(-c2ccccc2)c[nH]1 [Compound 26, N-Isopropyl-2-((4-phenyl-1H-imidazol-2-yl)thio)acetamide] |  |  |  |  | complete loss of activity |  | 
